US20250127904A1, “SIGLEC LIGANDS, CONJUGATES, AND METHODS OF USE THEREOF” (Osprey Biopharmaceuticals, Inc., priority 2023, published 2025)

Tests used:
[1] = biological target: recombinant cynomolgus siglec-2/CD22 His-tag (Macaca fascicularis, UniProt A0A2K5WCZ6); assay: SPR binding to cynomolgus siglec-2/CD22; conditions: steady-state analysis, read-out: Cyno CD22 affinity
Description: (§1) The following proteins were used for CD22 ligand binding: biotinylated human siglec-2/CD22 protein-His-Avitag (Acro Biosystems, Cat #SI2-H82E3), biotinylated mouse siglec-2-Fc-Avi (in-house production), and recombinant cynomolgus siglec-2/CD22 His-tag (R&D systems, Cat #9864-SL-050). Prior to immobilization, CD22 proteins were treated with SialoExo (Genovis, Cat #G1-SM1-020) for 4 hours at 37° C. to remove native sialic acid residues.
Surface preparation for cyno CD22 protein consisted of amine coupling to Cytiva CM5 chip (Cytiva, Cat #BR100530) using the Cytiva amine coupling kit Type 2 (Cytiva, Cat #BR100633). Following the standard amine coupling protocols, EDC and NHS from the kit were mixed 1:1 and injected over flow cells 1 and 2. Cyno CD22 was then immobilized by injecting 10 μg/mL in Sodium Acetate, pH 5.5 onto flow cell (2) for 420 seconds at 10 uL/min, yielding approximately 2500 RU of captured protein. Any active carboxy groups were then capped with 1M Ethanolamine, pH 8.5 for 420 s on flow cells 1 and 2.
(§2) Binding experiments of siglec-ligand conjugated proteins or Siglec ligand compounds were performed on the surfaces prepared above in 10 mM HEPES, 150 mM NaCl, 0.05% Tween-20, pH 7.5, 1% DMSO as the running buffer. Compounds were serially diluted in running buffer from 50 μM to 97.6 nM and injected over both the reference and active flow cells for 90 seconds at 30 μL/min. The compounds were then allowed to dissociate from the surface for 120 seconds. No regeneration was required as the compounds completely dissociated from the surface after 30 seconds. Solvent correction was performed using 0.5, 1, 1.5, and 2% DMSO spike into running buffer without DMSO. Data was analyzed using steady-state analysis in Biacore Insight Evaluation Software, version 3.0.

[2] = biological target: T1, biotinylated human siglec-2/CD22 protein-His-Avitag (Homo sapiens, UniProt P20273); assay: SPR binding to human siglec-2/CD22; conditions: steady-state analysis, read-out: Human CD22 affinity
T1 construct: purchased Acro Biosystems SI2-H82E3
T1 sequence (P20273 20-847): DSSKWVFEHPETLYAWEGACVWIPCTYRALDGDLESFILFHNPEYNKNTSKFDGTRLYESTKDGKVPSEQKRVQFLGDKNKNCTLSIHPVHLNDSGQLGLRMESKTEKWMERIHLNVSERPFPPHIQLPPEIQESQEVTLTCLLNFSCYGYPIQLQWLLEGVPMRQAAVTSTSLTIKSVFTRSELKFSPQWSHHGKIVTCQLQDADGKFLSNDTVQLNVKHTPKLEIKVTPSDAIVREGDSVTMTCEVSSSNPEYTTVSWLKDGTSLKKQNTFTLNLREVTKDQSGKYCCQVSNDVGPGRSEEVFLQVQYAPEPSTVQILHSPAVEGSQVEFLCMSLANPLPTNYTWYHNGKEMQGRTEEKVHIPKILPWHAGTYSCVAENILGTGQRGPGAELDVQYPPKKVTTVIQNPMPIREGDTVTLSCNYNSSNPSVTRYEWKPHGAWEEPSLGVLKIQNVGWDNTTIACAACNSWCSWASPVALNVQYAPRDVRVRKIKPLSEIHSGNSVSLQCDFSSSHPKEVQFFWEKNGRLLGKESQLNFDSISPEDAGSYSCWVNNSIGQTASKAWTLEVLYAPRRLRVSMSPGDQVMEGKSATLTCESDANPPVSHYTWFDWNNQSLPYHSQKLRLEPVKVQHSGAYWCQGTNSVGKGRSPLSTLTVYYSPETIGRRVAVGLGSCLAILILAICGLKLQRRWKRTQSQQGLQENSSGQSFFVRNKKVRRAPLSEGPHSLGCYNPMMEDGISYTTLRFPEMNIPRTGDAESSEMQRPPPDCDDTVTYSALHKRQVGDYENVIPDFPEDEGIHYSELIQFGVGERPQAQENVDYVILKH
Description: as §1
(§3) Capture of biotinylated CD22 constructs was performed using a Cytiva SA chip (BR100398) on a Biacore 8K instrument. Human siglec 2 was immobilized on channels 1-4 and mouse siglec 2 on channels 5-8 on the active flow cell (2) and the reference flow cell (1) was immobilized with biotinylated human FGFR2 Fc Avi, an unrelated protein, to account for any nonspecific binding. Human siglec 2 and Mouse siglec 2 were diluted in running buffer to 20 μg/mL and injected on the active flow cell (2) for 300 seconds at 5 μL/min, yielding about 3500 RU of captured constructs.
as §2

[3] = biological target: T2, biotinylated mouse siglec-2-Fc-Avi (Mus musculus, UniProt P35329); assay: SPR binding to mouse siglec-2/CD22; conditions: steady-state analysis, read-out: Mouse CD22 affinity
T2 construct: made in house
T2 sequence (P35329 22-708 limits assumed): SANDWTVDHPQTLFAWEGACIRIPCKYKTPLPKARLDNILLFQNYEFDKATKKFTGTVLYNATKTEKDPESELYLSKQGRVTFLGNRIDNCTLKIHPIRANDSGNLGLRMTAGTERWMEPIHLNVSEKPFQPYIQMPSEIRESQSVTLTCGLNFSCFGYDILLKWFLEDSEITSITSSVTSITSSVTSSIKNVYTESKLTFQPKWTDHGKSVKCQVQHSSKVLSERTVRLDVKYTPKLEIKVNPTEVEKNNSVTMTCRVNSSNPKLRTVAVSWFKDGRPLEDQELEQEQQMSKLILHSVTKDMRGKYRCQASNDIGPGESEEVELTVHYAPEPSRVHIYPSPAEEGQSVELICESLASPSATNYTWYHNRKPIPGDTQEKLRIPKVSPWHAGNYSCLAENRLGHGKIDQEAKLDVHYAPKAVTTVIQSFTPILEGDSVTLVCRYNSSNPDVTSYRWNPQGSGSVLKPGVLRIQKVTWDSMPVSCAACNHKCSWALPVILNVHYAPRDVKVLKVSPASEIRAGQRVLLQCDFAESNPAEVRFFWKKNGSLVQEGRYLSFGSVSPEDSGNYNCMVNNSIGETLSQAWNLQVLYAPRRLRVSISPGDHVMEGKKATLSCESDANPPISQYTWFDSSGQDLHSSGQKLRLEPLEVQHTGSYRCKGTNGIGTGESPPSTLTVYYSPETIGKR
Description: as §1, §3, §2

Sequence of recombinant cynomolgus siglec-2/CD22 His-tag (A0A2K5WCZ6 entry or part of it): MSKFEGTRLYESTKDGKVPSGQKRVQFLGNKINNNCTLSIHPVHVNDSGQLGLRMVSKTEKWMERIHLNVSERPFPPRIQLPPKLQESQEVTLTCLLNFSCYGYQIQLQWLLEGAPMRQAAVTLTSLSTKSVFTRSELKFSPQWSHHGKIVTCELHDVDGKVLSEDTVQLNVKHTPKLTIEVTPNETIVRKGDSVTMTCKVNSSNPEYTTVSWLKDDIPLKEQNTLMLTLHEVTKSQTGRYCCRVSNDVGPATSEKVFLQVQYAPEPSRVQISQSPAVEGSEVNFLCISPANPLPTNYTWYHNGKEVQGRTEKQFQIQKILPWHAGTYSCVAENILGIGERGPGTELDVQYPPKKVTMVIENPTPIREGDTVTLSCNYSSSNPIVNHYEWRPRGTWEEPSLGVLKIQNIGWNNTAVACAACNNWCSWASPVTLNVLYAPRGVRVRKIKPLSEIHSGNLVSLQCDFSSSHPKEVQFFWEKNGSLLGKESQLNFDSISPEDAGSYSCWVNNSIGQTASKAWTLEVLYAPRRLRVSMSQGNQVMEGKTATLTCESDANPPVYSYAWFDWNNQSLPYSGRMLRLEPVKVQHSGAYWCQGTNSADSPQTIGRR

C#Cc1ccc(CC(=O)NC[C@@H](O)[C@@H](O)[C@@H]2O[C@@](OCc3ccccc3)(C(=O)O)C[C@H](O)[C@H]2NC(=O)CO)cc1 [Compound 1, (2R,4S,5R,6R)-2-(benzyloxy)-6-((1R,2R)-3-(2-(4-ethynylphenyl)acetamido)-1,2-dihydroxypropyl)-4-hydroxy-5-(2-hydroxyacetamido)tetrahydro-2H-pyran-2-carboxylic acid]
Kd [1]: 1000 to 10000 nM | Kd [2]: < 1000 nM | Kd [3]: < 1000 nM

O=C(Cc1ccc(-c2cn(CCO)nn2)cc1)NC[C@@H](O)[C@@H](O)[C@@H]1O[C@@](OCc2ccccc2)(C(=O)O)C[C@H](O)[C@H]1NC(=O)CO [Compound 2, (2R,4S,5R,6R)-2-(benzyloxy)-6-((1R,2R)-1,2-dihydroxy-3-(2-(4-(1-(2-hydroxyethyl)-1H-1,2,3-triazol-4-yl)phenyl)acetamido)propyl)-4-hydroxy-5-(2-hydroxyacetamido)tetrahydro-2H-pyran-2-carboxylic acid]
Kd [2]: 1000 to 10000 nM | Kd [3]: 1000 to 10000 nM

C#Cc1ccc(CC(=O)NC[C@@H](O)[C@@H](O)[C@@H]2O[C@@](OCc3ccc(O)cc3)(C(=O)O)C[C@H](O)[C@H]2NC(=O)CO)cc1 [Compound 3, (2R,4S,5R,6R)-6-((1R,2R)-3-(2-(4-ethynylphenyl)acetamido)-1,2-dihydroxypropyl)-4-hydroxy-5-(2-hydroxyacetamido)-2-((4-hydroxybenzyl)oxy)tetrahydro-2H-pyran-2-carboxylic acid]
Kd [1]: < 1000 nM | Kd [2]: < 1000 nM | Kd [3]: 1000 to 10000 nM

C#CCOc1ccc(CC(=O)NC[C@@H](O)[C@@H](O)[C@@H]2O[C@@](OCc3ccccc3)(C(=O)O)C[C@H](O)[C@H]2NC(=O)CO)cc1 [Compound 4, (2R,4S,5R,6R)-2-(benzyloxy)-6-((1R,2R)-1,2-dihydroxy-3-(2-(4-(prop-2-yn-1-yloxy)phenyl)acetamido)propyl)-4-hydroxy-5-(2-hydroxyacetamido)tetrahydro-2H-pyran-2-carboxylic acid]
Kd [2]: 1000 to 10000 nM | Kd [3]: 1000 to 10000 nM

O=C(Cc1ccc(OCc2cn(CCO)nn2)cc1)NC[C@@H](O)[C@@H](O)[C@@H]1O[C@@](OCc2ccccc2)(C(=O)O)C[C@H](O)[C@H]1NC(=O)CO [Compound 5, (2R,4S,5R,6R)-2-(benzyloxy)-6-((1R,2R)-1,2-dihydroxy-3-(2-(4-((1-(2-hydroxyethyl)-1H-1,2,3-triazol-4-yl)methoxy)phenyl)acetamido)propyl)-4-hydroxy-5-(2-hydroxyacetamido)tetrahydro-2H-pyran-2-carboxylic acid]
Kd [2]: 1000 to 10000 nM | Kd [3]: 1000 to 10000 nM

C#CCCCCCCC#Cc1ccc(CC(=O)NC[C@@H](O)[C@@H](O)[C@@H]2O[C@@](OCc3ccccc3)(C(=O)O)C[C@H](O)[C@H]2NC(=O)CO)cc1 [Compound 6, (2R,4S,5R,6R)-2-(benzyloxy)-6-((1R,2R)-3-(2-(4-(deca-1,9-diyn-1-yl)phenyl)acetamido)-1,2-dihydroxypropyl)-4-hydroxy-5-(2-hydroxyacetamido)tetrahydro-2H-pyran-2-carboxylic acid]
Kd [2]: 1000 to 10000 nM | Kd [3]: 1000 to 10000 nM

C#CCCCCCCCCOc1ccc(CC(=O)NC[C@@H](O)[C@@H](O)[C@@H]2O[C@@](OCc3ccccc3)(C(=O)O)C[C@H](O)[C@H]2NC(=O)CO)cc1 [Compound 7, (2R,4S,5R,6R)-2-(benzyloxy)-6-((1R,2R)-3-(2-(4-(dec-9-yn-1-yloxy)phenyl)acetamido)-1,2-dihydroxypropyl)-4-hydroxy-5-(2-hydroxyacetamido)tetrahydro-2H-pyran-2-carboxylic acid]
Kd [1]: 1000 to 10000 nM | Kd [2]: 1000 to 10000 nM | Kd [3]: 1000 to 10000 nM

O=C(O)CCCCCCCCCCc1ccc(CC(=O)NC[C@@H](O)[C@@H](O)[C@@H]2O[C@@](OCc3ccccc3)(C(=O)O)C[C@H](O)[C@H]2NC(=O)CO)cc1 [Compound 8, (2R,4S,5R,6R)-2-(benzyloxy)-6-((1R,2R)-3-(2-(4-(10-carboxydecyl)phenyl)acetamido)-1,2-dihydroxypropyl)-4-hydroxy-5-(2-hydroxyacetamido)tetrahydro-2H-pyran-2-carboxylic acid]
Kd [1]: 1000 to 10000 nM | Kd [2]: < 1000 nM | Kd [3]: < 1000 nM

C#Cc1ccc(CC(=O)NC[C@@H](O)[C@@H](O)[C@@H]2O[C@@](OCCCCCCN)(C(=O)O)C[C@H](O)[C@H]2NC(=O)CO)cc1 [Compound 10, (2R,4S,5R,6R)-2-((6-aminohexyl)oxy)-6-((1R,2R)-3-(2-(4-ethynylphenyl)acetamido)-1,2-dihydroxypropyl)-4-hydroxy-5-(2-hydroxyacetamido)tetrahydro-2H-pyran-2-carboxylic acid]
Kd [2]: 1000 to 10000 nM | Kd [3]: 1000 to 10000 nM

C#Cc1ccc(CC(=O)NC[C@@H](O)[C@@H](O)[C@@H]2O[C@@](OCCCCCCNc3c(NCCOC)c(=O)c3=O)(C(=O)O)C[C@H](O)[C@H]2NC(=O)CO)cc1 [Compound 26, (2R,4S,5R,6R)-6-((1R,2R)-3-(2-(4-ethynylphenyl)acetamido)-1,2-dihydroxypropyl)-4-hydroxy-5-(2-hydroxyacetamido)-2-((6-((2-((2-methoxyethyl)amino)-3,4-dioxocyclobut-1-en-1-yl)amino)hexyl)oxy)tetrahydro-2H-pyran-2-carboxylic acid]
Kd [2]: < 1000 nM | Kd [3]: < 1000 nM

C#Cc1ccc(CC(=O)NC[C@@H](O)[C@@H](O)[C@@H]2O[C@@](OCCCCCCNC(=O)CCCC)(C(=O)O)C[C@H](O)[C@H]2NC(=O)CO)cc1 [Compound 29, (2R,4S,5R,6R)-6-((1R,2R)-3-(2-(4-ethynylphenyl)acetamido)-1,2-dihydroxypropyl)-4-hydroxy-5-(2-hydroxyacetamido)-2-((6-pentanamidohexyl)oxy)tetrahydro-2H-pyran-2-carboxylic acid]
Kd [2]: < 1000 nM | Kd [3]: < 1000 nM
